Data reported in patent publication EP3041456B1, “COMPOSITION AND METHOD FOR INDUCING OR STIMULATING GROWTH OF KERATINOUS FIBRES” (priority 2013, dated 2015).

Legend:
[1] = Components of turpentine oil: body and main organ weights, autopsy, histology; assay type: in vivo, mice; parameters: main organs' weights, Liver / main organs' weights, Spleen / main organs' weights, 2 kidneys / main organs' weights, 2 testicles / main organs' weights, Thymus / main organs' weights, Brain: unit not given here; details: 5% in ethanol, 4 weeks; for Total body weight in gram / main organs' weights, 2 kidneys / main organs' weights, 2 testicles / main organs' weights, Brain / main organs' weights, Liver / main organs' weights, Spleen / main organs' weights, Thymus: Mean +/- S.D., 10 mice per group
Source text: (§1) The following commercially available, components of turpentine oil were investigated: • (-) α-pinene; product No 13.127.32 Janssen Chim. 2440 Geel, Belgium • (+) α-pinene; product No 13.126.31 Janssen Chim. 2440, Geel Belgium • (-) β-pinene; product No 15.032.94 Janssen Chim, Geel, Belgium • Turpentine oil crude industrial product was originated from Portugal.
(§2) Young adult, male mice of the N.M.R.I. strain, weighing at the beginning of the experiment +/- 30 g were used, as in previous experiments.
(§3) The protocols used were similar to those described in the previous experiments and study was realized during summer months (July and August). Hair coats were cut along the dorsal surfaces with electric clippers in an area of +/- 6.0 cm^2 two days before treatments. Mice were divided into 4 groups of 10 animals. Each mouse received either • (1) A dose of 0.1 mL of 5% absolute ethanol solution of turpentine oil, • (2) (-) α-pinene, • (3) (+) α-pinene or • (4) (-) β-pinene administered topically on the surface of the shaved skin twice weekly.
(§4) Control groups of the same number and similar age and sex mice were treated the same way but topically applied the solvent alone (absolute ethanol).
(§5) After a 4-week treatment duration all the mice were sacrificed by decapitation, and general autopsies were performed in which skin and main organs specimens were excised and fixed in 10% formalin for histological examination after paraffin embedding and hematoxylin -eosin staining.
(§6) The following evaluating criteria of the observations and results were used: • (1) body and main organ weights, • (2) skin and main organs histological patterns, • (3) semi quantitative evaluation of hair follicles per 1 mm long area in a 5 different areas of the histological sections of the skin of each animal in each group at 100 x microscopic magnification.

hair follicles = assay: Components of turpentine oil: number of hair follicles after 4-week topical treatment; assay type: in vivo, mice; details: 4 weeks; for Mean number of hair follicles per 1 mm of skin +/- S.D.: 0.1 mL topically twice weekly, 10 mice per group
Source text: as §1, §2, §3, §4, §5, §6

SMILES | general toxicity [1] | Total body weight in gram [1] | main organs' weights, 2 kidneys [1] | main organs' weights, 2 testicles [1] | main organs' weights, Brain [1] | main organs' weights, Liver [1] | main organs' weights, Spleen [1] | main organs' weights, Thymus [1] | Mean number of hair follicles per 1 mm of skin +/- S.D. (hair follicles; 5% in absolute ethanol) | Mean number of hair follicles per 1 mm of skin +/- S.D. (hair follicles; 5% in absolute ethanol, listed as (-) α- pinene) | mice with more than 50 hair follicles (hair follicles; 5% in absolute ethanol, group of 10 mice) | activity (hair follicles multiplication) compared with the control group (hair follicles; 5% in ethanol) | local skin alteration (clinical signs or microscopic examination) (hair follicles; 5% in ethanol) | Mean number of hair follicles per 1 mm of skin +/- S.D. (hair follicles; 5% in absolute ethanol, listed as (-) β- pinene) | Mean number of hair follicles per 1 mm of skin +/- S.D. (hair follicles; 5% in absolute ethanol, listed as β-pinene) | Mean number of hair follicles per 1 mm of skin +/- S.D. (hair follicles; 5% in absolute ethanol, listed as (+) α- pinene)
CC1=CC[C@H]2C[C@@H]1C2(C)C [(-) α-pinene, (1S)-(-)-α-pinene] | neither any sign of a possible general toxicity | 39.5 ± .42 gram | 814 ± 121.7 | 440 ± 41.8 | 674 ± 23 | 2790 ± 449.9 | 332 ± 24.9 | 252 ± 22.8 | 52.6 per 1 mm of skin | 52.6 ± 7.8 per 1 mm of skin | 6 out of 10 | more than double | did not produce any local skin alteration | – | – | –
C=C1CC[C@H]2C[C@@H]1C2(C)C [(-) β-pinene, (1S)-(-)-β-pinene] | – | – | – | – | – | – | – | – | – | – | – | only slightly superior to the effects of treatment with the solvent lone | – | 28.1 ± 7.6 per 1 mm of skin | 28.1 per 1 mm of skin | –
CC1=CC[C@@H]2C[C@H]1C2(C)C [(+) α-pinene, (1R)-(+)-α-pinene] | – | 40.1 ± 3.73 gram | 840 ± 89.7 | 432 ± 34.9 | 658 ± 23.8 | 2834 ± 283.4 | 390 ± 36.7 | 266 ± 18.1 | 28.9 per 1 mm of skin | – | – | only slightly superior to the effects of treatment with the solvent lone | – | – | – | 28.9 ± 6.4 per 1 mm of skin
